Assay results published in PMC6100415, “Hepatic Metabolism of Sakuranetin and Its Modulating Effects on Cytochrome P450s and UDP-Glucuronosyltransferases” (Molecules : A Journal of Synthetic Chemistry and Natural …, 2018).
Read-outs that look alike come from different tables or passages of the source.

Columns and labels:
Format in all cases: in vitro ADME
CYP2B6 = molecular target: T1, CYP2B6 (Homo sapiens, UniProt P20813); assay: CYP inhibition in human liver microsomes, bupropion hydroxylation (BPHY); details: pH 7.4, probe bupropion (hydroxylation, BPHY)
T1 sequence (P20813 1-491): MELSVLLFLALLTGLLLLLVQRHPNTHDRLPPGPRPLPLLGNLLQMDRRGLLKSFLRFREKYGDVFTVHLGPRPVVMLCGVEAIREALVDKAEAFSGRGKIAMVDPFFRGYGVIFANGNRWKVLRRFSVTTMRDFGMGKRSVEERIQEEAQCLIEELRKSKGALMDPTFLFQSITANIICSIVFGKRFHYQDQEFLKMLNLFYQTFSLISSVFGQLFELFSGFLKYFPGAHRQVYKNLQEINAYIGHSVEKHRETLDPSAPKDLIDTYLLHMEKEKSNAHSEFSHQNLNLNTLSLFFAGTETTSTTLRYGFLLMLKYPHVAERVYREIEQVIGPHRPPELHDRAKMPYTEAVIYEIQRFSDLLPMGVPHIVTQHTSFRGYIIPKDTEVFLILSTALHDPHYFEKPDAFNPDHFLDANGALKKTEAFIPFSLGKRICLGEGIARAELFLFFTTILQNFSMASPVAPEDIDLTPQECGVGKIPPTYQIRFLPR
Description: (§1) The DAD was set at 280 nm.

UGT1A1 = molecular target: T2, UGT1A1 (Homo sapiens, UniProt P22309); assay: UGT inhibition in human liver microsomes, 17β-estradiol 3-O-glucuronidation (ESG); details: pH 7.4, probe 17β-estradiol (200 μM)
T2 construct: The typical incubation mixture contained human liver microsomes (0.5 mg/mL) along with SKN (10 μM); tissue BD Gentest; host or cells: human liver microsomes
T2 sequence (P22309 26-533): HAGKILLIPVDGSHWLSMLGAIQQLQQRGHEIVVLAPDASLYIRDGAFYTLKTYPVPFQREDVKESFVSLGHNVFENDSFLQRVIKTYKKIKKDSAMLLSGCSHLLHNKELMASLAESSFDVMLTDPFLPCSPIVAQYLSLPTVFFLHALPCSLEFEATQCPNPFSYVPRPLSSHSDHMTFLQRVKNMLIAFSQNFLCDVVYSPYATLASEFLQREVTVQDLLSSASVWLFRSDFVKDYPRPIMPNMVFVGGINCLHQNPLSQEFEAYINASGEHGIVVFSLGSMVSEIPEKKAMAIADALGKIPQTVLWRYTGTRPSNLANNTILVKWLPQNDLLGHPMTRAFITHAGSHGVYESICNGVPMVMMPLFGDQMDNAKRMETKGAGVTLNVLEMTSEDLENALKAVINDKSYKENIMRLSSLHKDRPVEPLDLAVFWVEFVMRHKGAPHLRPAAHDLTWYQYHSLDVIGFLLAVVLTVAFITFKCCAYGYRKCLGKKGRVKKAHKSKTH
Protocol: (§2) The formation of a glucuronide conjugate from an isozyme-specific substrate (200 μM, Table 5) was examined to determine UGT activity levels in human liver microsomes. The typical incubation mixture contained human liver microsomes (0.5 mg/mL) along with SKN (10 μM), and MgCl2 (10 mM) in 50 mM Tris-HCl buffer (pH 7.4). The metabolic reaction was initiated by adding UPDGA (2 mM) and stopped by adding an equal volume of ice-cold methanol. […] The conditions used for the operation and analysis of the HPLC-DAD and LC-ESI-MS are provided in the Supplementary Materials and Table S3.
(§3) The solvent flow rate was set at 0.2 mL/min, and the column temperature was set at 35 °C. The LTQ instrument was operated in negative ion electron spray mode at an ion spray voltage of −4.2 kV and a source temperature of 275 °C. The sheath gas flow rate was 35 arb, and the aux gas flow rate was 5 arb. The MS conditions used to detect glucuronides via selected ion monitoring scan mode are summarized in Supplementary Materials Table S3.

CYP3A4 = CYP3A4 (Homo sapiens, UniProt P08684); assay: CYP inhibition in human liver microsomes, testosterone 6β-hydroxylation (TSTHY); details: pH 7.4, probe testosterone (6β-hydroxylation, TSTHY)
Description: as §1

UGT2B7 = molecular target: T3, UGT2B7 (Homo sapiens, UniProt P16662); assay: UGT inhibition in human liver microsomes, zidovudine 5′-glucuronidation (AZTG); details: pH 7.4, probe zidovudine (200 μM)
T3 construct: The typical incubation mixture contained human liver microsomes (0.5 mg/mL) along with SKN (10 μM); tissue BD Gentest; host or cells: human liver microsomes
T3 sequence (P16662 24-529): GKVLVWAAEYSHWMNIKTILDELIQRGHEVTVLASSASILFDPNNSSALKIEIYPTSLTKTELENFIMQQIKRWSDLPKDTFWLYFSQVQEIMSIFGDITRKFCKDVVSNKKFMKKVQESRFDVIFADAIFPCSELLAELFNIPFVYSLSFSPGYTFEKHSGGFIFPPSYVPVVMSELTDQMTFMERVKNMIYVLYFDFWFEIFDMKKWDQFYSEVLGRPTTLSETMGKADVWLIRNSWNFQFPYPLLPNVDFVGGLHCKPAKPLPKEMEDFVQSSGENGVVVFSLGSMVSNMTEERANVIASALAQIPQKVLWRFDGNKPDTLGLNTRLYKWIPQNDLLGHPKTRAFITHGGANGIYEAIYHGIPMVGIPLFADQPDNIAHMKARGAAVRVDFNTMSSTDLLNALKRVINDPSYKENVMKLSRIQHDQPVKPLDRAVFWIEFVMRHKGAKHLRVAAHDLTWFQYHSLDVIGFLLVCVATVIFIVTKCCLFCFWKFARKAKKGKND
Protocol: as §2, §3

UGT1A6 = molecular target: T4, UGT1A6 (Homo sapiens, UniProt P19224); assay: UGT inhibition in human liver microsomes, 1-naphthol β-D-glucuronidation (NPG); details: pH 7.4, probe 1-naphthol (200 μM)
T4 construct: The typical incubation mixture contained human liver microsomes (0.5 mg/mL) along with SKN (10 μM); tissue BD Gentest; host or cells: human liver microsomes
T4 sequence (P19224 27-532): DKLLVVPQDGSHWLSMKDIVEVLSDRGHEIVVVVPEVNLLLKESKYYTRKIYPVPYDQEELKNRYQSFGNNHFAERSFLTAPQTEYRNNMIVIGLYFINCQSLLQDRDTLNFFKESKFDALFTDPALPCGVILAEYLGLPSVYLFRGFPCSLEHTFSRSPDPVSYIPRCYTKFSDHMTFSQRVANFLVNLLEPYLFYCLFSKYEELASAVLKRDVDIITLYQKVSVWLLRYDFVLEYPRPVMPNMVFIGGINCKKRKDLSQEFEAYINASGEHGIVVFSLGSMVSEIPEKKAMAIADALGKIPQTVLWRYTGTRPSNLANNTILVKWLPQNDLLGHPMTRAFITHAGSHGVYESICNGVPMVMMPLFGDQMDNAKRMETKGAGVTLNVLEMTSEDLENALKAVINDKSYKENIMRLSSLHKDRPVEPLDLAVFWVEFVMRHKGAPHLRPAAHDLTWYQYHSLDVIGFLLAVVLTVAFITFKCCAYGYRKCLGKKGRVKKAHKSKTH
Protocol: as §2, §3

[1] = liver microsomes, 200 μM, SKN 10 μM, 15 min pre-incubation, read-out: % Inhibition in Pre-Incubation
[2] = liver microsomes, 200 μM, SKN 10 μM, human liver microsomes, read-out: % Inhibition in Co-Incubation
[3] = SKN 10 μM, 15 min pre-incubation, read-out: % Inhibition in Pre-Incubation
[4] = SKN 10 μM, read-out: % Inhibition in Co-Incubation
[5] = human liver microsomes, 200 µM, inhibitor 10 M [sic], human liver microsomes 0.5 mg/mL, read-out: Inhibition (%)
[6] = inhibitor 10 µM, human liver microsomes 0.5 mg/mL, read-out: Inhibition (%)

CYP3A4, sequence (P08684 whole entry): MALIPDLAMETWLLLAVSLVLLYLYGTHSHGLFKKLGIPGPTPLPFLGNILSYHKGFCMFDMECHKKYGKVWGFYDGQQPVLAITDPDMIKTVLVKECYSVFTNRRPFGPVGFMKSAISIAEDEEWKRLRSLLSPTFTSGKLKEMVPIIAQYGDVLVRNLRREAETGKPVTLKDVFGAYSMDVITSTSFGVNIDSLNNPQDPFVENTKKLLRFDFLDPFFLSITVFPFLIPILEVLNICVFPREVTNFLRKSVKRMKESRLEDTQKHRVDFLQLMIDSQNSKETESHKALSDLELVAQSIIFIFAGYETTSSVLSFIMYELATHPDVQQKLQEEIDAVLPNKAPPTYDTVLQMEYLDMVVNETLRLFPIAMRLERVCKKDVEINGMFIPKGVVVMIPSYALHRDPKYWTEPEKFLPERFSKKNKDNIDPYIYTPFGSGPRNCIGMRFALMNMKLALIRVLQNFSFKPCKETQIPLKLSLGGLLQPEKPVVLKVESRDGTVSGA

inhibition at 60 min, 10 µM (CYP2B6; [1]) [%] | inhibition at 60 min, 10 µM (CYP2B6; [2]) [%] | inhibition at 10 μM (UGT1A1; [3]) [%] | inhibition at 10 μM (UGT1A1; [4]) [%] | inhibition at 60 min, 10 µM (CYP3A4; [1]) [%] | inhibition at 60 min, 10 µM (CYP3A4; [2]) [%] | inhibition at 10 μM (UGT2B7; [3]) [%] | inhibition at 10 μM (UGT2B7; [4]) [%] | inhibition at 10 μM (UGT1A6; [3]) [%] | inhibition at 10 μM (UGT1A6; [4]) [%] | inhibition at 60 min, 10 µM (CYP2B6; [5]) [%] | inhibition at 10 μM (UGT1A1; [6]) [%] | inhibition at 60 min, 10 µM (CYP3A4; [5]) [%] | inhibition at 10 μM (UGT2B7; [6]) [%] | inhibition at 10 μM (UGT1A6; [6]) [%] | Compound
0.8 ± 0.2 | -0.6 ± 0.9 | 1.5 ± 2.1 | 0.4 ± 0.5 | 12.6 ± 2.8 | 15.6 ± 0.6 | 12.6 ± 2.8 | 15.6 ± 0.6 | 10.1 ± 1.2 | 2 ± 0.6 |  |  |  |  |  | COc1cc(O)c2c(c1)OC(c1ccc(O)cc1)CC2=O (racemic) [SKN, (+/−) 7-O-methylnaringenin]
 |  |  |  |  |  |  |  |  |  | 16.1 ± 0.9 | 20.8 ± 3.4 | 3.2 ± 0.7 | 8.2 ± 1.4 | 1.9 ± 2.7 | O=C1C[C@@H](c2ccc(O)c(O)c2)Oc2cc(O)cc(O)c21 [Eriodictyol, 3′-hydroxynaringenin]
 |  |  |  |  |  |  |  |  |  | 24 ± 2.2 | 10.8 ± 3 | 39.6 ± 2.2 | 6 ± 2.2 | 4.1 ± 3.1 | O=C1C[C@@H](c2ccc(O)cc2)Oc2cc(O)cc(O)c21 [Naringenin]
